Data from US20260365682A1, “MODULATORS OF TNF-ALPHA ACTIVITY” (Forward Therapeutics, Inc., priority 2022, published 2026).

These compounds were tested against T1, TNF-α (Homo sapiens, UniProt P01375) (assay: TNF-α Induced HEK Blue Cellular Assay (secreted alkaline phosphatase expression, QUANTI-Blue)). Conditions: HEK Blue TNFα reporter cells; TNF-α 100 μg/ml; 24 hrs at 37° C.; inhibition of secreted alkaline phosphatase; read-out: IC50 value.
T1 construct: purchased R&D 210-TA-020/CF
Format: cell-based
Outline: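 Compound was serially diluted from […] to 0.5 nM final, then incubated with 10,000 HEK Blue TNFα reporter cells per well and […] TNF-α for 24 h at 37° C. SEAP output was read by QUANTI-Blue absorbance at 620 nm. Inhibition was background-corrected against DMSO controls with and without stimulation, and IC50 was fitted with a 4-parameter logistic equation.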

T1 sequence (P01375 77-233 limits assumed): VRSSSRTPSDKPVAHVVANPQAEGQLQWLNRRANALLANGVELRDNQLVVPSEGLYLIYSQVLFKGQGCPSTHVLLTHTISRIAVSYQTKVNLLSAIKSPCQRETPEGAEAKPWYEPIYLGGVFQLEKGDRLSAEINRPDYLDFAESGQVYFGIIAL

SMILES | IC50 [nM]
[2H]C([2H])([2H])N1C(=O)c2cccc(OC(F)F)c2[C@H]2C[C@@H]1c1nc3ccc(C#CC4CCCN(C)C4)cc3n12 (stereo partly drawn) [Example 63, (7R,14R)-1-(difluoromethoxy)-6-(methyl-d3)-11-((1-methylpiperidin-3-yl)ethynyl)-6,7-dihydro-7,14-methanobenzo[f]benzo[4,5]imidazo[1,2-a][1,4]diazocin-5(14H)-one] | < 100
[2H]C([2H])([2H])N1C(=O)c2cccc(OC(F)F)c2[C@H]2C[C@@H]1c1nc3ccc(C#CCNCC)cc3n12 [Example 65, (7R,14R)-1-(difluoromethoxy)-11-(3-(ethylamino)prop-1-yn-1-yl)-6-(methyl-d3)-6,7-dihydro-7,14-methanobenzo[f]benzo[4,5]imidazo[1,2-a][1,4]diazocin-5(14H)-one] | 10000 to 30000
[2H]C([2H])([2H])N1C(=O)c2cccc(OC(F)F)c2[C@H]2C[C@@H]1c1nc3ccc(C#CCN(C)CC)cc3n12 [Example 67, (7R,14R)-1-(difluoromethoxy)-11-(3-(ethyl(methyl)amino)prop-1-yn-1-yl)-6-(methyl-d3)-6,7-dihydro-7,14-methanobenzo[f]benzo[4,5]imidazo[1,2-a][1,4]diazocin-5(14H)-one] | 100 to 1000
[2H]C([2H])([2H])N1C(=O)c2cccc(OC(F)F)c2[C@H]2C[C@@H]1c1nc3ccc(C#CC4CNC4)cc3n12 [Example 69, (7R,14R)-11-(azetidin-3-ylethynyl)-1-(difluoromethoxy)-6-(methyl-d3)-6,7-dihydro-7,14-methanobenzo[f]benzo[4,5]imidazo[1,2-a][1,4]diazocin-5(14H)-one] | 100 to 1000
[2H]C([2H])([2H])N1C(=O)c2cccc(OC(F)F)c2[C@H]2C[C@@H]1c1nc3ccc(C#CCNC(C)(C)C)cc3n12 [Example 70, (7R,14R)-11-(3-(tert-butylamino)prop-1-yn-1-yl)-1-(difluoromethoxy)-6-(methyl-d3)-6,7-dihydro-7,14-methanobenzo[f]benzo[4,5]imidazo[1,2-a][1,4]diazocin-5(14H)-one] | 10000 to 30000
[2H]C([2H])([2H])N1C(=O)c2cccc(OC(F)F)c2[C@H]2C[C@@H]1c1nc3ccc(C#CC4CCNC4)cc3n12 (stereo partly drawn) [Example 71, (7R,14R)-1-(difluoromethoxy)-6-(methyl-d3)-11-(pyrrolidin-3-ylethynyl)-6,7-dihydro-7,14-methanobenzo[f]benzo[4,5]imidazo[1,2-a][1,4]diazocin-5(14H)-one] | 100 to 1000
[2H]C([2H])([2H])N1C(=O)c2cccc(OC(F)F)c2[C@H]2C[C@@H]1c1nc3ccc(C#CCOC(C)CO)cc3n12 (stereo partly drawn) [Example 72, (7R,14R)-1-(difluoromethoxy)-11-(3-((1-hydroxypropan-2-yl)oxy)prop-1-yn-1-yl)-6-(methyl-d3)-6,7-dihydro-7,14-methanobenzo[f]benzo[4,5]imidazo[1,2-a][1,4]diazocin-5(14H)-one] | < 100
[2H]C([2H])([2H])N1C(=O)c2cccc(OC(F)F)c2[C@H]2C[C@@H]1c1nc3ccc(C#CCOCC(C)O)cc3n12 (stereo partly drawn) [Example 73, (7R,14R)-1-(difluoromethoxy)-11-(3-(2-hydroxypropoxy)prop-1-yn-1-yl)-6-(methyl-d3)-6,7-dihydro-7,14-methanobenzo[f]benzo[4,5]imidazo[1,2-a][1,4]diazocin-5(14H)-one] | < 100
[2H]C([2H])([2H])N1C(=O)c2cccc(OC(F)F)c2[C@H]2C[C@@H]1c1nc3ccc(C#CCCOC)cc3n12 [Example 77, (7R,14R)-1-(difluoromethoxy)-11-(4-methoxybut-1-yn-1-yl)-6-(methyl-d3)-6,7-dihydro-7,14-methanobenzo[f]benzo[4,5]imidazo[1,2-a][1,4]diazocin-5(14H)-one] | < 100
[2H]C([2H])([2H])N1C(=O)c2cccc(OC(F)F)c2[C@H]2C[C@@H]1c1nc3ccc(C#CC(C)OCC)cc3n12 (stereo partly drawn) [Example 78, (7R,14R)-1-(difluoromethoxy)-11-(3-ethoxybut-1-yn-1-yl)-6-(methyl-d3)-6,7-dihydro-7,14-methanobenzo[f]benzo[4,5]imidazo[1,2-a][1,4]diazocin-5(14H)-one] | 100 to 1000
[2H]C([2H])([2H])N1C(=O)c2cccc(OC(F)F)c2[C@H]2C[C@@H]1c1nc3ccc(C#CC4COC4)cc3n12 [Example 80, (7R,14R)-1-(difluoromethoxy)-6-(methyl-d3)-11-(oxetan-3-ylethynyl)-6,7-dihydro-7,14-methanobenzo[f]benzo[4,5]imidazo[1,2-a][1,4]diazocin-5(14H)-one] | < 100
[2H]C([2H])([2H])N1C(=O)c2cccc(OC(F)F)c2[C@H]2C[C@@H]1c1nc3ccc(C#CCC4(O)COC4)cc3n12 [Example 81, (7R,14R)-1-(difluoromethoxy)-11-(3-(3-hydroxyoxetan-3-yl)prop-1-yn-1-yl)-6-(methyl-d3)-6,7-dihydro-7,14-methanobenzo[f]benzo[4,5]imidazo[1,2-a][1,4]diazocin-5(14H)-one] | 100 to 1000
[2H]C([2H])([2H])N1C(=O)c2cccc(OC(F)F)c2[C@H]2C[C@@H]1c1nc3ccc(C#CCC(C)(C)O)cc3n12 [Example 82, (7R,14R)-1-(difluoromethoxy)-11-(4-hydroxy-4-methylpent-1-yn-1-yl)-6-(methyl-d3)-6,7-dihydro-7,14-methanobenzo[f]benzo[4,5]imidazo[1,2-a][1,4]diazocin-5(14H)-one] | 10000 to 30000
[2H]C([2H])([2H])N1C(=O)c2cccc(OC(F)F)c2[C@H]2C[C@@H]1c1nc3ccc(C#CCCCC#N)cc3n12 [Example 86, 6-((7R,14R)-1-(difluoromethoxy)-6-(methyl-d3)-5-oxo-5,6,7,14-tetrahydro-7,14-methanobenzo[f]benzo[4,5]imidazo[1,2-a][1,4]diazocin-11-yl)hex-5-ynenitrile] | < 100

Other lines, results leading:

IC50 [nM] | SMILES
10000 to 30000 | [2H]C([2H])([2H])N1C(=O)c2cccc(OC(F)F)c2[C@H]2C[C@@H]1c1nc3ccc(C#CC(C)(C)N)cc3n12 [Example 64, (7R,14R)-11-(3-amino-3-methylbut-1-yn-1-yl)-1-(difluoromethoxy)-6-(methyl-d3)-6,7-dihydro-7,14-methanobenzo[f]benzo[4,5]imidazo[1,2-a][1,4]diazocin-5(14H)-one]
100 to 1000 | [2H]C([2H])([2H])N1C(=O)c2cccc(OC(F)F)c2[C@H]2C[C@@H]1c1nc3ccc(C#CCNC(C)C)cc3n12 [Example 66, (7R,14R)-1-(difluoromethoxy)-11-(3-(isopropylamino)prop-1-yn-1-yl)-6-(methyl-d3)-6,7-dihydro-7,14-methanobenzo[f]benzo[4,5]imidazo[1,2-a][1,4]diazocin-5(14H)-one]
< 100 | [2H]C([2H])([2H])N1C(=O)c2cccc(OC(F)F)c2[C@H]2C[C@@H]1c1nc3ccc(C#CC4CN(C)C4)cc3n12 [Example 68, (7R,14R)-1-(difluoromethoxy)-6-(methyl-d3)-11-((1-methylazetidin-3-yl)ethynyl)-6,7-dihydro-7,14-methanobenzo[f]benzo[4,5]imidazo[1,2-a][1,4]diazocin-5(14H)-one]
< 100 | [2H]C([2H])([2H])N1C(=O)c2cccc(OC(F)F)c2[C@H]2C[C@@H]1c1nc3ccc(C#CCOC(C)C)cc3n12 [Example 74, (7R,14R)-1-(difluoromethoxy)-11-(3-isopropoxyprop-1-yn-1-yl)-6-(methyl-d3)-6,7-dihydro-7,14-methanobenzo[f]benzo[4,5]imidazo[1,2-a][1,4]diazocin-5(14H)-one]
100 to 1000 | [2H]C([2H])([2H])N1C(=O)c2cccc(OC(F)F)c2[C@H]2C[C@@H]1c1nc3ccc(C#CC(C)C)cc3n12 [Example 75, (7R,14R)-1-(difluoromethoxy)-6-(methyl-d3)-11-(3-methylbut-1-yn-1-yl)-6,7-dihydro-7,14-methanobenzo[f]benzo[4,5]imidazo[1,2-a][1,4]diazocin-5(14H)-one]
< 100 | [2H]C([2H])([2H])N1C(=O)c2cccc(OC(F)F)c2[C@H]2C[C@@H]1c1nc3ccc(C#CC4CCN(C)C4)cc3n12 (stereo partly drawn) [Example 76, (7R,14R)-1-(difluoromethoxy)-6-(methyl-d3)-11-((1-methylpyrrolidin-3-yl)ethynyl)-6,7-dihydro-7,14-methanobenzo[f]benzo[4,5]imidazo[1,2-a][1,4]diazocin-5(14H)-one]
100 to 1000 | [2H]C([2H])([2H])N1C(=O)c2cccc(OC(F)F)c2[C@H]2C[C@@H]1c1nc3ccc(C#CCOc4ccccc4)cc3n12 [Example 79, (7R,14R)-1-(difluoromethoxy)-6-(methyl-d3)-11-(3-phenoxyprop-1-yn-1-yl)-6,7-dihydro-7,14-methanobenzo[f]benzo[4,5]imidazo[1,2-a][1,4]diazocin-5(14H)-one]
< 100 | [2H]C([2H])([2H])N1C(=O)c2cccc(OC(F)F)c2[C@H]2C[C@@H]1c1nc3ccc(C#CCCCO)cc3n12 [Example 83, (7R,14R)-1-(difluoromethoxy)-11-(5-hydroxypent-1-yn-1-yl)-6-(methyl-d3)-6,7-dihydro-7,14-methanobenzo[f]benzo[4,5]imidazo[1,2-a][1,4]diazocin-5(14H)-one]
< 100 | [2H]C([2H])([2H])N1C(=O)c2cccc(OC(F)F)c2[C@H]2C[C@@H]1c1nc3ccc(C#CC4CC4)cc3n12 [Example 85, (7R,14R)-11-(cyclopropylethynyl)-1-(difluoromethoxy)-6-(methyl-d3)-6,7-dihydro-7,14-methanobenzo[f]benzo[4,5]imidazo[1,2-a][1,4]diazocin-5(14H)-one]

Same assay, conditions: IC50 value, HEK Blue TNFα reporter cells; TNF-α 100 μg/ml; 24 hrs at 37° C.; inhibition of secreted alkaline phosphatase

IC50 [nM] | SMILES
< 100 | [2H]C([2H])([2H])N1C(=O)c2cccc(OC(F)F)c2[C@H]2C[C@@H]1c1nc3ccc(C#CCC)cc3n12 [Example 84, (7R,14R)-11-(but-1-yn-1-yl)-1-(difluoromethoxy)-6-(methyl-d3)-6,7-dihydro-7,14-methanobenzo[f]benzo[4,5]imidazo[1,2-a][1,4]diazocin-5(14H)-one]
